# Tested on: male CD1 mice
# Experiment: Luciferase production in the lung after intratracheal FFL mRNA-LNP
# Assay type: in vivo, mouse
# Settings: for potency as determined by the average radiance detected in mouse lungs: FFL mRNA-LNP, intratracheal, about 5 hours post-dose; for performance in liposomes administered through pulmonary delivery via nebulization: mouse, in vivo
# Method: About 150 cationic lipids were tested. (FIG. 7). Each cationic lipid was used in preparing lipid nanoparticles encapsulating mRNA encoding firefly luciferase protein (FFL mRNA) according to methods known in the art. For example, suitable methods for mRNA encapsulation include methods described in International Publication Nos. WO2016/004318 and WO 2018/089801, which is hereby incorporated by reference in its entirety. The tested lipid nanoparticles comprised a lipid component consisting of a cationic lipid, a non-cationic lipid (DOPE), a PEG-modified lipid (DMG-PEG2K), and optionally cholesterol.
# Lipid nanoparticle formulations comprising FFL mRNA were administered to male CD1 mice by a single intratracheal administration via nebulization using a Microsprayer®. At approximately 5 hours post-dose, the animals were dosed with luciferin by intraperitoneal injection and all animals were imaged using an IVIS imaging system to measure luciferase production in the lung. […] Some cationic lipids remarkably had greater than 50-fold increase in pulmonary protein expression as compared to other cationic lipids.
SMILES,"historical radiance/expression of pulmonary-delivered FFL mRNA LNP (mice, nebulized FFL mRNA in LNP with this cationic lipid)",potency as determined by the average radiance detected in mouse lungs,performance in liposomes administered through pulmonary delivery via nebulization
"CC(C)CCCC(C)C1CCC2C3CC=C4CC(OC(=O)CCc5cnc[nH]5)CCC4(C)C3CCC12C (stereo not shown) [ICE, imidazole cholesterol ester, reference compound]",around 10^4 p/s/cm^2sr,–,–
CCCCCCCCCCCCCCOC(=O)CC(CC(=O)OCCCCCCCCCCCCCC)(OC(=O)CCN(C)C)C(=O)OCCCCCCCCCCCCCC [TL1-04D-DMA],–,particularly high potency,performed particularly well
CCCCCCCCC(O)CN(CCCCC(=O)OCCN1CC(C)N(CCOC(=O)CCCCN(CC(O)CCCCCCCC)CC(O)CCCCCCCC)CC1C)CC(O)CCCCCCCC (stereo not shown) [HEP-E4-E10],–,particularly high potency,performed particularly well
CCCCCCCCC(O)CN(CCCC(=O)OCCN1CC(C)N(CCOC(=O)CCCN(CC(O)CCCCCCCC)CC(O)CCCCCCCC)CC1C)CC(O)CCCCCCCC (stereo not shown) [HEP-E3-E10],–,particularly high potency,performed particularly well
"CCCCCCCCOC(=O)CC(CC(=O)OCCCCCCCC)(OC(=O)CCN(C)C)C(=O)OCCCCCCCC [TL1-01D-DMA, trioctyl 2-((3-(dimethylamino)propanoyl)oxy)propane-1,2,3-tricarboxylate]",–,particularly high potency,performed particularly well
CCCCC/C=C\C/C=C\CCCCCCCC(=O)OCC(COC(=O)CCCCCCC/C=C\C/C=C\CCCCC)(COC(=O)CCCCCCC/C=C\C/C=C\CCCCC)NCCS(=O)(=O)NCCCN(C)C [GL-TES-SA-DMP-E18-2],–,particularly high potency,performed particularly well
"CCCCC/C=C\C/C=C\CCCCCCCC(=O)OCC(COC(=O)CCCCCCC/C=C\C/C=C\CCCCC)(COC(=O)CCCCCCC/C=C\C/C=C\CCCCC)NCCS(=O)(=O)NCCN(C)C [GL-TES-SA-DME-E18-2, 2-((2-(N-(2-(dimethylamino)ethyl)sulfamoyl)ethyl)amino)-2-((((9Z,12Z)-octadeca-9,12-dienoyl)oxy)methyl)propane-1,3-diyl (9Z,9′Z,12Z,12′Z)-bis(octadeca-9,12-dienoate)]",–,particularly high potency,performed particularly well

# Source: US12605399B2, “Compositions for CFTR MRNA therapy” (TRANSLATE BIO, INC., priority 2020, dated 2026)
